According to patent US20180252712A1, “RECEPTOR FOR NOROVIRUS AND USES THEREOF” (priority 2017, published 2018):

What was measured:
[1] = system: MNoV^CR6; assay: CRISPR screen in BV2-Cas9 cells, sgRNA enrichment after MNoV^CR6 infection; format: cell-based, murine norovirus; conditions: for log2 fold enrichment after MNV infection relative to mock infected cells, CR6 MOI 0.05: MNoV^CR6, MOI 0.05, ten days post-infection; for log2 fold enrichment after MNV infection relative to mock infected cells, CR6 MOI 5: MNoV^CR6, MOI 5, ten days post-infection
Protocol: (§1) BV2 cells were transduced with pXPR_101 (Addgene plasmid 52962) and selected with blasticidin for eleven days. Cas9 activity was assessed by transducing parental BV2 or BV2-Cas9 cells with pXPR_011 (Addgene plasmid 59702), expresses eGFP and a sgRNA targeting eGFP at an MOI<1 [1]. Cells were transduced for 2 days and subsequently, selected for five days with puromycin and the frequency of eGFP expression was assessed by flow cytometry. The mouse ASIAGO sgRNA CRISPR library contains six independent genome wide pools which each pool containing a unique sgRNA targeting each of 20,077 mouse genes. Four ASIAGO pools were independently used to generate the BV2 library (Doench et al submitted). Each ASIAGO pool was delivered by lentiviral transduction of 5×10^7 BV2 cells at an MOI ˜0.2. This equates to 1×10^7 transduced cells, which is sufficient for the integration of each sgRNA 500 independent times. Two days post transduction, puromycin was added to the media and transduced cells were selected for five days. For each experimental condition, 1×10^7 BV2-Cas9 cells containing sgRNAs were seeded in a T175 tissue culture flask. Cells were infected with either MNoV^CW3 or MNoV^CR6 at MOls of 0.05 and 5. Mock infected cells were harvested 48 hrs after seeding and served as a reference for sgRNA enrichment analysis. Ten days post-infection genomic DNA was isolated from surviving cells using a Qiamp DNA mini kit according to manufacturer instructions (Qiagen).
(§2) Illumina sequencing and STARS analysis was performed as described previously (Doench et al, in press). Briefly, genomic DNA was aliquoted into multiple wells of a 96-well plate with up to 10 μg of DNA in 50 μl total volume. A PCR mastermix consisting of ExTaq DNA polymerase (Clontech), ExTaq buffer, dNTP, P5 stagger primer, and water was generated. 40 μl of PCR master mix, and 10 μl of a barcoded primer was added to each well containing 50 μl of DNA. Samples were PCR amplified as follows: 95° C. for 1 min., followed by 28 cycles of 94° C. for 30 sec., 52.5° C. for 30 sec., 72° C. for 30 sec. with a final 10 min. at 72° C. PCR product was purified with Agencourt AMPure XP SPRI beads according to the manufacture's protocol (Beckman Coluter). Samples were sequenced on an Illumina HiSeq 2000. Barcodes in the P7 primer were deconvuluted and the sgRNA sequence was mapped to a reference file of sgRNAs in the ASIAGO library. To normalize for different numbers of reads per condition, read counts per sgRNA were normalized to 10^7 total reads per sample. This normalized value was then log-2 transformed. sgRNAs that were not sequenced were arbitrarily assigned a read count of 1. sgRNA frequencies were then analyzed using STARS software, which is available at broadinstitute.org/rnai/public/software/index (Doench et al, in press). STARS computes a score for each gene of rank-ordered sgRNA hits that was above […] of total sequenced sgRNAs. A STAR score was only assigned to genes that scored above this threshold in at least two of four independent genome wide pools.

[2] = system: MNoV^CW3; assay: CRISPR screen in BV2-Cas9 cells, sgRNA enrichment after MNoV^CW3 infection; format: cell-based, murine norovirus; conditions: for log2 fold enrichment after MNV infection relative to mock infected cells, CW3 MOI 0.05: MNoV^CW3, MOI 0.05, ten days post-infection; for log2 fold enrichment after MNV infection relative to mock infected cells, CW3 MOI 5: MNoV^CW3, MOI 5, ten days post-infection
Protocol: as §1, §2

In the case of “ACAGGTCCAGAGGAGGTGAG: sgRNA used in screen, matches CD300ld, CD300lf, CD300lh (listed as DNA, chemistry not given here)”, the “log2 fold enrichment after MNV infection relative to mock infected cells, CR6 MOI 0.05” value [1] is reported as 0.0 log2 fold enrichment, the “log2 fold enrichment after MNV infection relative to mock infected cells, CR6 MOI 5” value [1] is reported as 13.1 log2 fold enrichment and the “log2 fold enrichment after MNV infection relative to mock infected cells, CW3 MOI 0.05” value [2] is reported as 0.0 log2 fold enrichment. The “log2 fold enrichment after MNV infection relative to mock infected cells, CW3 MOI 5” value [2] was 13.0 log2 fold enrichment.

In the case of “ACGGAAGTGAGAAAGAAAAG: sgRNA used in screen, matches CD300le (listed as DNA, chemistry not given here)”, the “log2 fold enrichment after MNV infection relative to mock infected cells, CR6 MOI 0.05” value [1] is reported as −6.6 log2 fold enrichment, the “log2 fold enrichment after MNV infection relative to mock infected cells, CR6 MOI 5” value [1] is reported as −6.6 log2 fold enrichment and the “log2 fold enrichment after MNV infection relative to mock infected cells, CW3 MOI 0.05” value [2] is reported as −6.6 log2 fold enrichment. For the same substance, the “log2 fold enrichment after MNV infection relative to mock infected cells, CW3 MOI 5” value [2] was −6.6 log2 fold enrichment.

With “CATAGGTCACTGTAAAGGTG: sgRNA used in screen, matches CD300la (listed as DNA, chemistry not given here)” the “log2 fold enrichment after MNV infection relative to mock infected cells, CR6 MOI 0.05” value [1] was −7.2 log2 fold enrichment, the “log2 fold enrichment after MNV infection relative to mock infected cells, CR6 MOI 5” value [1] was −7.2 log2 fold enrichment and the “log2 fold enrichment after MNV infection relative to mock infected cells, CW3 MOI 0.05” value [2] was −7.2 log2 fold enrichment. For the same substance, the “log2 fold enrichment after MNV infection relative to mock infected cells, CW3 MOI 5” value [2] was −7.2 log2 fold enrichment.

“CCTGTGATCCAGAAGAGAAA: sgRNA used in screen, matches CD300lf (listed as DNA, chemistry not given here)” was tested, and the “log2 fold enrichment after MNV infection relative to mock infected cells, CR6 MOI 0.05” value [1] was 9.6 log2 fold enrichment, the “log2 fold enrichment after MNV infection relative to mock infected cells, CR6 MOI 5” value [1] was 9.6 log2 fold enrichment and the “log2 fold enrichment after MNV infection relative to mock infected cells, CW3 MOI 0.05” value [2] was 9.6 log2 fold enrichment. For the same substance, the “log2 fold enrichment after MNV infection relative to mock infected cells, CW3 MOI 5” value [2] was 9.6 log2 fold enrichment.

In the case of “CGTAGCCAGACACAGAGCCA: sgRNA used in screen, matches CD300le (listed as DNA, chemistry not given here)”, the “log2 fold enrichment after MNV infection relative to mock infected cells, CR6 MOI 0.05” value [1] is reported as −5.8 log2 fold enrichment, the “log2 fold enrichment after MNV infection relative to mock infected cells, CR6 MOI 5” value [1] is reported as −5.9 log2 fold enrichment and the “log2 fold enrichment after MNV infection relative to mock infected cells, CW3 MOI 0.05” value [2] is reported as −5.9 log2 fold enrichment. The “log2 fold enrichment after MNV infection relative to mock infected cells, CW3 MOI 5” value [2] was −5.5 log2 fold enrichment.

For “CTACGCAAATCAGGACCAGG: sgRNA used in screen, matches CD300lg (listed as DNA, chemistry not given here)”, the “log2 fold enrichment after MNV infection relative to mock infected cells, CR6 MOI 0.05” value [1] was −6.4 log2 fold enrichment, the “log2 fold enrichment after MNV infection relative to mock infected cells, CR6 MOI 5” value [1] was −6.4 log2 fold enrichment and the “log2 fold enrichment after MNV infection relative to mock infected cells, CW3 MOI 0.05” value [2] was −6.4 log2 fold enrichment. For the same substance, the “log2 fold enrichment after MNV infection relative to mock infected cells, CW3 MOI 5” value [2] was −6.4 log2 fold enrichment.

“CTAGCTACTACTCTGATAAC: sgRNA used in screen, matches CD300lf (listed as DNA, chemistry not given here)” was tested, and the “log2 fold enrichment after MNV infection relative to mock infected cells, CR6 MOI 0.05” value [1] was 0.0 log2 fold enrichment, the “log2 fold enrichment after MNV infection relative to mock infected cells, CR6 MOI 5” value [1] was 9.8 log2 fold enrichment and the “log2 fold enrichment after MNV infection relative to mock infected cells, CW3 MOI 0.05” value [2] was 0.0 log2 fold enrichment. The “log2 fold enrichment after MNV infection relative to mock infected cells, CW3 MOI 5” value [2] was 11.0 log2 fold enrichment.

“CTCCACGTAGGTACACCGCA: sgRNA used in screen, matches CD300lg (listed as DNA, chemistry not given here)” was tested, and the “log2 fold enrichment after MNV infection relative to mock infected cells, CR6 MOI 0.05” value [1] was −5.6 log2 fold enrichment, the “log2 fold enrichment after MNV infection relative to mock infected cells, CR6 MOI 5” value [1] was −5.8 log2 fold enrichment and the “log2 fold enrichment after MNV infection relative to mock infected cells, CW3 MOI 0.05” value [2] was −5.8 log2 fold enrichment. The “log2 fold enrichment after MNV infection relative to mock infected cells, CW3 MOI 5” value [2] was −5.3 log2 fold enrichment.

“GAGTGTGTCATGTCGATATG: sgRNA used in screen, matches CD300la (listed as DNA, chemistry not given here)” was tested, and the “log2 fold enrichment after MNV infection relative to mock infected cells, CR6 MOI 0.05” value [1] was −6.2 log2 fold enrichment, the “log2 fold enrichment after MNV infection relative to mock infected cells, CR6 MOI 5” value [1] was −6.2 log2 fold enrichment and the “log2 fold enrichment after MNV infection relative to mock infected cells, CW3 MOI 0.05” value [2] was −6.2 log2 fold enrichment. The “log2 fold enrichment after MNV infection relative to mock infected cells, CW3 MOI 5” value [2] was −6.2 log2 fold enrichment.

For “GCAGCAAATCCAAATCTCAG: sgRNA used in screen, matches CD300lb (listed as DNA, chemistry not given here)”, the “log2 fold enrichment after MNV infection relative to mock infected cells, CR6 MOI 0.05” value [1] was −5.8 log2 fold enrichment, the “log2 fold enrichment after MNV infection relative to mock infected cells, CR6 MOI 5” value [1] was −5.8 log2 fold enrichment and the “log2 fold enrichment after MNV infection relative to mock infected cells, CW3 MOI 0.05” value [2] was −5.8 log2 fold enrichment. For the same substance, the “log2 fold enrichment after MNV infection relative to mock infected cells, CW3 MOI 5” value [2] was −5.8 log2 fold enrichment.

With “GCCCTTGCTACTTACCTGGG: sgRNA used in screen, matches CD300ld (listed as DNA, chemistry not given here)” the “log2 fold enrichment after MNV infection relative to mock infected cells, CR6 MOI 0.05” value [1] was 0.0 log2 fold enrichment, the “log2 fold enrichment after MNV infection relative to mock infected cells, CR6 MOI 5” value [1] was −5.5 log2 fold enrichment and the “log2 fold enrichment after MNV infection relative to mock infected cells, CW3 MOI 0.05” value [2] was 0.0 log2 fold enrichment. For the same substance, the “log2 fold enrichment after MNV infection relative to mock infected cells, CW3 MOI 5” value [2] was −5.5 log2 fold enrichment.

With “GCTACTTACCTGGGAGGAAA: sgRNA used in screen, matches CD300lh (listed as DNA, chemistry not given here)” the “log2 fold enrichment after MNV infection relative to mock infected cells, CR6 MOI 0.05” value [1] was −5.9 log2 fold enrichment, the “log2 fold enrichment after MNV infection relative to mock infected cells, CR6 MOI 5” value [1] was −5.9 log2 fold enrichment and the “log2 fold enrichment after MNV infection relative to mock infected cells, CW3 MOI 0.05” value [2] was −5.9 log2 fold enrichment. The “log2 fold enrichment after MNV infection relative to mock infected cells, CW3 MOI 5” value [2] was −5.9 log2 fold enrichment.

For “GGAAGAGGATGAGCAGAGCA: sgRNA used in screen, no identical CD300 match marked (listed as DNA, chemistry not given here)”, the “log2 fold enrichment after MNV infection relative to mock infected cells, CR6 MOI 0.05” value [1] was −6.4 log2 fold enrichment, the “log2 fold enrichment after MNV infection relative to mock infected cells, CR6 MOI 5” value [1] was −6.4 log2 fold enrichment and the “log2 fold enrichment after MNV infection relative to mock infected cells, CW3 MOI 0.05” value [2] was −6.4 log2 fold enrichment. The “log2 fold enrichment after MNV infection relative to mock infected cells, CW3 MOI 5” value [2] was −6.4 log2 fold enrichment.

With “GGATCCAGTCACAGGTCCAG: sgRNA used in screen, matches CD300lf, CD300lh (listed as DNA, chemistry not given here)” the “log2 fold enrichment after MNV infection relative to mock infected cells, CR6 MOI 0.05” value [1] was 0.0 log2 fold enrichment, the “log2 fold enrichment after MNV infection relative to mock infected cells, CR6 MOI 5” value [1] was 12.6 log2 fold enrichment and the “log2 fold enrichment after MNV infection relative to mock infected cells, CW3 MOI 0.05” value [2] was 0.0 log2 fold enrichment. For the same substance, the “log2 fold enrichment after MNV infection relative to mock infected cells, CW3 MOI 5” value [2] was 12.5 log2 fold enrichment.

For “GGTCGTCCCTGATGGACACA: sgRNA used in screen, matches CD300lh (listed as DNA, chemistry not given here)”, the “log2 fold enrichment after MNV infection relative to mock infected cells, CR6 MOI 0.05” value [1] was 12.0 log2 fold enrichment, the “log2 fold enrichment after MNV infection relative to mock infected cells, CR6 MOI 5” value [1] was 11.0 log2 fold enrichment and the “log2 fold enrichment after MNV infection relative to mock infected cells, CW3 MOI 0.05” value [2] was 12.0 log2 fold enrichment. For the same substance, the “log2 fold enrichment after MNV infection relative to mock infected cells, CW3 MOI 5” value [2] was 7.8 log2 fold enrichment.
